Assay results from patent publication US20090257985A1, “METHODS OF REGULATING EXPRESSION OF GENES OR OF GENE PRODUCTS USING SUBSTITUTED TETRACYCLINE COMPOUNDS” (priority 2006, published 2009).

Tests used:
rtTA2s-M2 [1] = experiment: Activation of rtTA2s-M2 in vitro; assay type: cell-based; details: relative to doxycycline
rtTA2s-M2 [2] = experiment: Activation of rtTA2s-M2 gene in vivo, bioluminescence of bitransgenic mice rTA M2CaMK-1/LC1; details: 0.2 mg/mL in drinking water with 5% sucrose, seven days, compared with doxycycline at 2 mg/mL
Description: 9-t-butyl doxycycline was tested in bitransgenic mice with rTA M2CaMK-1/LC1. The mice expressed the rtTA2s-M2 gene under control of the forebrain specific α-CamKII promoter. In addition, the LC1 mouse had luciferase and cre genes under the control of the bi-directional promoter. The mice were adminstered doxycycline (2 mg/mL) for seven days in the drinking water with 5% sucrose or with 9-t-butyl doxycycline at (0.2 and 2 mg/mL). The mice were anaesthetized with avertin and injected with […] (IP) and placed in the bioluminescence chamber and measured 5 minutes later.

rtTA = details: in vitro; relative to doxycycline
rtTA2-MT2 = experiment: rtTA-mediated gene activation, luciferase positive cell line MT2; assay type: cell-based
Description: (§1) FIGS. 2A-2D show a comparison of doxycycline and 9-t-butyl doxcycline in 34R and MT2 rtTA mutants. FIGS. 2A and 2B show the effect of doxycyline on 34R and MT2 mutants, respectively. FIGS. 2C and 2D show the effect of 9-t-butyl doxycycline on 34R and MT2 mutants, respectively.

rtTA2-34R = experiment: rtTA-mediated gene activation, luciferase positive cell line 34R; assay type: cell-based; details: FIGS. 2A and 2C
Description: as §1

[3] = test system: tet operator-linked nucleotide sequence; details: as demonstrated in U.S. Pat. No. 5,789,156; cited from earlier work
[4] = described in Mansuy and Bujard Curr. Op. Neurobiol. 10:593-96; cited from earlier work

Q: Which “activation of rtTA2s-M2 compared with doxycycline” value (rtTA2s-M2 [1]) does the source give for 5-phenylcarbamate doxcycline here?
A: The value was “two fold better activiator”.

Q: What does the source list for 9-t-butyl doxycycline?
A: activation response (luciferase bioluminescence) (rtTA2s-M2 [2]): better activation response; concentration inducing all rtTA's, lower than doxycycline (rtTA): 10 fold; activity compared with doxycycline, MT2 rtTA mutant (rtTA2-MT2; FIGS. 2B and 2D): ten times more active; concentration at which full induction of the system occurred (rtTA2-MT2; rtTA2-MT2 system): 10 ng/mL; activity compared with doxycycline, 34R rtTA mutant (rtTA2-34R): ten times more active

Q: For Cc1c2c(c(O)c3c(O)cccc13)C(=O)[C@]1(O)C(=O)C(C(N)=O)=C(O)[C@@H](N(C)C)[C@@H]1C2 [anhydrotetracycline], which “strength as inducing agent” value [3] is on record?
A: Its value is “strong inducing agents”.

Q: Which “penetration of the blood-brain barrier” value [4] does the source give for C[C@H]1c2cccc(O)c2C(=O)C2=C(O)[C@]3(O)C(=O)C(C(N)=O)=C(O)[C@@H](N(C)C)[C@@H]3[C@@H](O)[C@@H]21 [doxycycline] here?
A: Its value is “limited penetration of the blood-brain barrier”.
